Earlier results on one compound are cited in patent US10821075B1, “Compositions for topical application of a medicaments onto a mammalian body surface” (priority 2017, dated 2020).

The term pKa denotes the negative logarithm of the acid dissociation constant.

The conditions of the data set: weak acid drug.

Take `CC(C(=O)O)c1cccc(C(=O)c2ccccc2)c1` (stereo not shown) [ketoprofen]: the pKa is recorded as 4.30.
